What was measured:
K-562 = assay: NCI dose-dependent growth inhibition, K-562; type: cell-based; conditions: Homo sapiens, K562; K-562, 48-h exposure
Excerpt: (§1) The three compounds were particularly active against leukemia cell lines. […] Without wishing to be limited by any theory, such differences in biochemical and biological patterns may be explained by differences in the cell permeabilities or stabilities of the two compounds. […] Data provided by the National Cancer Institute (NCI): […] The optical density of the test well after a 48-h period of exposure to test drug is T, the optical density at time zero is T0, and the control optical density is C. The “50” is called the […] parameter that can have values from +100 to -100.

MOLT-4 = assay: NCI dose-dependent growth inhibition, MOLT-4; type: cell-based; conditions: Homo sapiens; MOLT-4, 48-h exposure
Excerpt: as §1

RPMI-8226 = assay: NCI dose-dependent growth inhibition, RPMI-8226; type: cell-based; conditions: Homo sapiens; RPMI-8226, 48-h exposure
Excerpt: as §1

SR = assay: NCI dose-dependent growth inhibition, SR; type: cell-based; conditions: Homo sapiens, 48-h exposure
Excerpt: as §1

HL-60 = assay: NCI dose-dependent growth inhibition, HL-60; type: cell-based; conditions: Homo sapiens; HL-60, 48-h exposure
Excerpt: as §1

[1] = target: T1, human 20S proteasome (hs20S), chymotrypsin-like β5-subunits (Homo sapiens, UniProt P20618+P28074); assay: In vitro 20S peptidase inhibition kinetics, chymotrypsin-like activity (Suc-LLVY-AMC); type: biochemical; conditions: second-order rate constant, Suc-LLVY-AMC substrate, 37° C.
T1 construct: purchased R&D
Procedure: In vitro 20S peptidase inhibition assays were recorded in a 384-well plate at a SpectraMax M5 (Molecular devises) plate-reader. Therefore, 5 nM human 20S (R&D) was incubated in buffer R (50 mM HEPES-KOH, pH 7.5, 0.5 mM EDTA) with 100 μM of the fluorogenic peptide substrates Suc-LLVY-AMC or Boc-LRR-AMC. Reactions were started by adding various amounts of inhibitors (5 nM to 500 μM) to a final volume of 30 μL and peptide hydrolysis was continuously monitored for 90 min by changes in fluorescence (excitation 380 nm; emission 440 nm) at 37° C. The kobs values were determined by fitting the raw data to equation (1). The slopes of the plots of kobsversus I gave an apparent value of kobs/I, also referred to as kinact/Ki for an irreversible inhibitor, which was then corrected by equation (2) to compensate for the effect of substrate competition, where app is the apparent value at different inhibitor concentrations.
Using purified human 20S proteasome (hs20S) and a fluorogenic substrate (Suc-LLVY-AMC), in vitro assays were performed to systematically assess proteasome inhibition by the syringolin analogues. The choice of substrate was based on the fact that it is preferentially acted upon by the chymotrypsin-like β5-subunits of the proteasome due to the aromatic tyrosine residue at the scissile bond (i.e., P1 position).
From measurements of the rates of hydrolysis of the fluorogenic substrate by the proteasome in the presence of increasing concentrations of each inhibitor, second-order rate constants kin/Ki (M^−1 s^−1) were determined (Table 1), which reflect both the affinity of the non-covalent binding (Ki) and the rate of the chemical reaction with the enzyme (kin). All of the syringolin analogues were capable in inhibiting the chymotrypsin-like activity of hs20S. Without wishing to be limited by any theory, consistent with the design predictions, the most significant contributor to the apparent second-order rate constants of the compounds was their binding affinity (Ki) rather than the rates of inhibition.
In vitro 20S peptidase inhibition assays were recorded in a 384-well plate at a SpectraMax M5 (Molecular Devices) plate-reader. Therefore, 5 nM human 20S (R&D) was incubated in buffer R (50 mM HEPEs-KOH, pH 7.5, 0.5 mM EDTA) with 100 μM of the fluorogenic peptide substrate Suc-LLVY-AMC. Reactions were started by adding various amounts of inhibitors 5 nM to 500 μM) to a final volume of 30 μL and peptide hydrolysis was continuously monitored for 90 minutes by changes in fluorescence (excitation 380 nm; emission 440 nm) at 37 degrees Celsius. The kobs values were determined by fitting the raw data to equation 1. The slopes of the plots of kobs versus I gave an apparent value of kob/I, also referred to as kinact/Ki for an irreversible inhibitor, which was then corrected by equation 2 to compensate for the effect of substrate competition, where app is the apparent value at different inhibitor concentrations.

[2] = test system: 60 different cancer cell lines; assay: NCI single-dose growth assay with 60 cancer cell lines; type: cell-based; conditions: 10 μM, average over the panel of cell lines
Procedure: FIG. 6 illustrates the in vitro inhibition results for compound 1, while FIG. 7 illustrates the in vitro inhibition results for compound 13. FIG. 8 illustrates the in vitro inhibition results for compound 14, while FIG. 9 illustrates the in vitro inhibition results for compound 15. FIG. 10 illustrates the in vitro inhibition results for compound 16. […] Specifically, cell lines incubated in media with 10 μM of compound 15 grew at an average of 30% of those incubated in media without compound. The mean growth of the cell lines in media with the same concentration of compound 16 was approximately 71% of those in negative control experiments.

leukemia cell lines = assay: NCI dose-dependent growth inhibition, leukemia cell lines overall; type: cell-based; conditions: as much as, fold more potent
Excerpt: as §1

| SMILES | GI50 (K-562) [µM] | GI50 (MOLT-4) [µM] | GI50 (RPMI-8226) [µM] | GI50 (SR) [µM] | GI50 (HL-60) [µM] | hs20S kin/Ki [1] | mean growth of cell lines relative to media without compound [2] | potency relative to syringolin B methyl ester (1) against the leukemia cell lines (leukemia cell lines) [fold] |
| --- | --- | --- | --- | --- | --- | --- | --- | --- |
| COC(=O)[C@@H](NC(=O)N[C@H](C(=O)N[C@H]1CCCCNC(=O)/C=C/[C@H](C(C)C)NC1=O)C(C)C)C(C)C [Compound 1, Syringolin B Methyl Ester, reference compound] | 6.12 | 4.73 | 3.97 | 5.13 | 5.41 | – | – | – |
| COC(=O)[C@@H](NC(=O)N[C@@H](Cc1ccccc1)C(=O)N[C@H]1CCCCNC(=O)/C=C/[C@H](Cc2ccccc2)NC1=O)C(C)C [Compound 15, (S)-methyl 2-(3-((S)-1-(((5S,8S,E)-5-benzyl-2,7-dioxo-1,6-diazacyclododec-3-en-8-yl)amino)-1-oxo-3-phenylpropan-2-yl)ureido)-3-methylbutanoate] | 14.6 | 3.32 | 2.72 | 2.78 | 4.34 | 4,199 M^−1s^−1 | 30% | – |
| COC(=O)[C@@H](NC(=O)N[C@@H](Cc1ccccc1)C(=O)N[C@H]1CCCCNC(=O)/C=C/[C@H](Cc2c[nH]c3ccccc23)NC1=O)C(C)C [Compound 16] | 2.94 | 0.599 | 0.343 | 0.453 | 1.29 | – | approximately 71% | ≤ 11.5 |
